These molecules were tested against T1, G protein-coupled receptor 88 (Homo sapiens, UniProt Q9GZN0) (assay: Modulator activity at GPR88 (unknown origin) expressed in cell membranes incubated for 1 hr by liquid scintillation counting based [35S]GTPgammaS binding assay).
Format: functional

T1 sequence (Q9GZN0 whole entry): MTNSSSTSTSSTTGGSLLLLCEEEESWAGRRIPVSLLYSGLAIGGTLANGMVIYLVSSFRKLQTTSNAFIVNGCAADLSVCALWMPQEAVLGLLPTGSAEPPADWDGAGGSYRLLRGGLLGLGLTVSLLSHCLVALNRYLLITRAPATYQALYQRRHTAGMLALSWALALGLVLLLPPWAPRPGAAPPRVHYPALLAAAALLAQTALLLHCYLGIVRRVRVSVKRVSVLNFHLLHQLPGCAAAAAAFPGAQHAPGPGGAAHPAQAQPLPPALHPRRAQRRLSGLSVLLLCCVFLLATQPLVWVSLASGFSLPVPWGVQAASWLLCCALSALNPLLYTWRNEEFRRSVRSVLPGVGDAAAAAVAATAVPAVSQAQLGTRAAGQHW

EC50, ≤ 130 nM:
CCc1ccc(-c2ccc([C@H](CO)NC(=O)[C@H]3C[C@@H]3c3cccs3)cc2)cc1, CC[C@H](C)COc1ccc([C@H](CN)NC(=O)[C@H]2C[C@@H]2c2cccs2)c(C)c1, CC[C@H](C)COc1ccc([C@H](CN)NC(=O)[C@H]2C[C@@H]2c2cccs2)cc1, CCCC(C)COc1ccc([C@H](CN2CCN(C)CC2)NC(=O)[C@H]2C[C@@H]2c2cccs2)cc1 (stereo partly drawn), CCc1ccc(-c2ccc([C@H](CO)NC(=O)[C@H]3C[C@@H]3c3cccs3)c(OC)c2)cc1, CC[C@H](NC(=O)[C@H]1C[C@@H]1c1ccccc1)c1ccc(-c2ccc(OC)cc2)cc1

Each molecule was assayed against T1, G protein-coupled receptor 88 (assay: Modulator activity at GPR88 (unknown origin) incubated for 30 mins by cell based cAMP HTRF assay).
Format: functional

EC50, ≤ 130 nM:
CCC(CC)COc1ccc([C@H](CO)NC(=O)[C@H]2C[C@@H]2c2cccs2)c(C)c1, CC[C@H](C)COc1ccc([C@H](CO)NC(=O)[C@H]2C[C@@H]2c2cccs2)c(C)c1, CC[C@H](C)COc1ccc([C@H](CN2CCN(C)CC2)NC(=O)[C@H]2C[C@@H]2c2cccs2)cc1, CCCC#Cc1ccc([C@H](CO)NC(=O)[C@H]2C[C@@H]2c2cccs2)c(OC)c1, CCC(CC)COc1ccc([C@H](CO)NC(=O)[C@H]2C[C@@H]2c2cccs2)cc1, CCCC(C)COc1ccc([C@H](CO)NC(=O)[C@H]2C[C@@H]2c2cccs2)c(C)c1 (stereo partly drawn), Cc1ccc(-c2ccc([C@H](CO)NC(=O)[C@H]3C[C@@H]3c3cccs3)cc2)cc1
